The values below are quoted from earlier work in publication PMC3449305 (Bioorganic & medicinal chemistry, 2011).

The conditions of series [1]: rats.
Series [2] relates to CNS. The conditions noted are these: rodents.

SMILES strings stand for the structures.

`CC(NC(=O)C(CC(=O)N1CCC(N2CCCCC2)CC1)N1C(=O)C(N2C(=O)OCC2c2ccccc2)C1C=Cc1ccccc1)c1ccccc1` (centres unmarked) [SRX246]: the blood-brain barrier penetration entry in series [1] is reported as “crosses the blood–brain barrier”.

Turning to `C[C@@H](NC(=O)[C@@H](CC(=O)N1CCC(N2CCCCC2)CC1)N1C(=O)[C@@H](N2C(=O)OC[C@@H]2c2ccccc2)[C@H]1/C=C/c1cccc(I)c1)c1ccccc1` [Compound 11a, (R)-4-([1,4′-Bipiperidin]-1′-yl)-2-((2R,3S)-2-((E)-3-iodostyryl)-4-oxo-3-((S)-2-oxo-4-phenyloxazolidin-3-yl)azetidin-1-yl)-4-oxo-N-((R)-1-phenylethyl)butanamide], the “CNS effect in BOLD imaging” value in series [2] is reported as “CNS modulatory effect”.
